Where a SMILES comes first, the peptide text is derived from it. Bridges are numbered along the chain shown (N, C = ends). Roman numbers before positions name the chains, in order. [ ]: non-standard residue; d: D form. Tle = CC(C)(C)[C@H](N)C(=O)O; dDab = NCC[C@@H](N)C(=O)O; Nle = CCCC[C@H](N)C(=O)O; Orn = NCCC[C@H](N)C(=O)O; Dab = NCC[C@H](N)C(=O)O
Assays:
Assay type in all cases: cell-based
[1] = tested on: Klebsiella pneumoniae SSI #3010; conditions: SSI #3010
How it was run: (§1)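 Antibacterial activity is measured as MIC (μg/mL) by standard CLSI microdilution. Inocula of about 10^6 CFU/mL in MH-II broth meet two-fold peptide dilutions in medium with 0.002% Polysorbate 80, and growth is scored visually after 18-20 hours at 35° C.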

[2] = tested on: Escherichia coli ATCC 25922; conditions: ATCC 25922
How it was run: as §1

[3] = tested on: Klebsiella pneumoniae 968733; conditions: 968733
[4] = tested on: Escherichia coli 926415; conditions: 926415
[5] = tested on: Acinetobacter baumannii DSM 30008; conditions: DSM 30008
How it was run: as §1

[6] = tested on: Acinetobacter baumannii 872842; conditions: 872842
[7] = tested on: Pseudomonas aeruginosa ATCC 27853; conditions: ATCC 27853
How it was run: as §1

[8] = tested on: human red blood cells (hRBC); assay: Hemolysis of human red blood cells; conditions: red cells of human, 1 h
How it was run: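 Fresh human red blood cells are washed in PBS, then shaken with peptide (100 μg/mL) at 37° C. for 1 h, final erythrocyte density about 0.9×10^9 cells/mL. After centrifugation, diluted supernatants are read at 540 nm against buffer (0%) and Triton X-100 (100%) lysis controls.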

SMILES	Klebsiella pneumoniae SSI #3010 MIC [1]	Escherichia coli ATCC 25922 MIC [2]	Klebsiella pneumoniae 968733 MIC [3]	Escherichia coli 926415 MIC [4]	Acinetobacter baumannii DSM 30008 MIC [5]	Acinetobacter baumannii 872842 MIC [6]	Pseudomonas aeruginosa ATCC 27853 MIC [7]	Hemolysis at 100 μg/mL ([8]; 100 μg/mL)	Hemolysis at 100 μg/mL [8]; 100
CCCC[C@@H]1NC(=O)[C@@H]2CCCN2C(=O)[C@H]2CCCN2C(=O)[C@H](CO)NC(=O)[C@H](C)NC(=O)[C@H](C(C)(C)C)NC(=O)[C@H](CCN)NC(=O)[C@H](Cc2c[nH]c3ccccc23)NC(=O)[C@@H](NC(C)=O)CSSC[C@@H](C(=O)N[C@@H](CCN)C(=O)N[C@H]2CCNC(=O)[C@H]([C@@H](C)O)NC(=O)[C@H](CCN)NC(=O)[C@H](CCN)NC(=O)[C@H](CC(C)C)NC(=O)[C@@H](Cc3ccccc3)NC(=O)[C@H](CCN)NC2=O)NC(=O)[C@H](CCCN)NC(=O)[C@H](CCN)NC(=O)[C@H](Cc2ccc(O)cc2)NC(=O)[C@H](CO)NC1=O [Ex. 57] (Ac-CW[Dab][Tle]AS[dP]P[Nle]SY[Dab][Orn]C[Dab][Dab][Dab][dF]L[Dab][Dab]T; disulfide 1-14; lactam 16-C)	0.25 µg/mL	0.25 µg/mL	8 µg/mL	1 µg/mL	1 µg/mL	4 µg/mL	0.5 µg/mL	<1%	–
CCCC[C@@H]1NC(=O)[C@@H]2CCCN2C(=O)[C@H]2CCCN2C(=O)[C@H](CO)NC(=O)[C@H](C)NC(=O)[C@H](C(C)(C)C)NC(=O)[C@H](CCN)NC(=O)[C@H](Cc2c[nH]c3ccccc23)NC(=O)[C@@H](NC(C)=O)CCC(=O)NCC[C@@H](C(=O)N[C@@H](CCN)C(=O)N[C@H]2CCNC(=O)[C@H]([C@@H](C)O)NC(=O)[C@H](CCN)NC(=O)[C@H](CCN)NC(=O)[C@H](CC(C)C)NC(=O)[C@@H](Cc3ccccc3)NC(=O)[C@H](CCN)NC2=O)NC(=O)[C@H](CCCN)NC(=O)[C@H](CCN)NC(=O)[C@H](Cc2ccc(O)cc2)NC(=O)[C@H](CO)NC1=O [Ex. 58] (Ac-EW[Dab][Tle]AS[dP]P[Nle]SY[Dab][Orn][Dab][Dab][Dab][Dab][dF]L[Dab][Dab]T; lactam 1-14, 16-C)	0.125 µg/mL	0.125 µg/mL	2 µg/mL	0.25 µg/mL	0.25 µg/mL	0.5 µg/mL	0.5 µg/mL	–	<1%
CCCC[C@@H]1NC(=O)[C@@H]2CCCN2C(=O)[C@H]2CCCN2C(=O)[C@H](CO)NC(=O)[C@H](C)NC(=O)[C@H](C(C)(C)C)NC(=O)[C@H](CCN)NC(=O)[C@H](Cc2c[nH]c3ccccc23)NC(=O)[C@@H](NC(C)=O)CCNC(=O)CC[C@@H](C(=O)N[C@@H](CCN)C(=O)N[C@H]2CCNC(=O)[C@H]([C@@H](C)O)NC(=O)[C@H](CCN)NC(=O)[C@H](CCN)NC(=O)[C@H](CC(C)C)NC(=O)[C@@H](Cc3ccccc3)NC(=O)[C@H](CCN)NC2=O)NC(=O)[C@H](CCCN)NC(=O)[C@H](CCN)NC(=O)[C@H](Cc2ccc(O)cc2)NC(=O)[C@H](CO)NC1=O [Ex. 59] (Ac-[Dab]W[Dab][Tle]AS[dP]P[Nle]SY[Dab][Orn]E[Dab][Dab][Dab][dF]L[Dab][Dab]T; lactam 1-14, 16-C)	0.5 µg/mL	0.25 µg/mL	2 µg/mL	0.5 µg/mL	0.5 µg/mL	2 µg/mL	1 µg/mL	–	<1%
CCCC[C@@H]1NC(=O)[C@@H]2CCCN2C(=O)[C@H]2CCCN2C(=O)[C@H](CO)NC(=O)[C@H](C)NC(=O)[C@H](C(C)(C)C)NC(=O)[C@H](CCN)NC(=O)[C@H](Cc2c[nH]c3ccccc23)NC(=O)[C@@H](NC(C)=O)CSSC[C@@H](C(=O)N[C@H](CCN)C(=O)N[C@H]2CCNC(=O)[C@H]([C@@H](C)O)NC(=O)[C@H](CCN)NC(=O)[C@H](CCN)NC(=O)[C@H](CC(C)C)NC(=O)[C@@H](Cc3ccccc3)NC(=O)[C@H](CCN)NC2=O)NC(=O)[C@H](CCCN)NC(=O)[C@H](CCN)NC(=O)[C@H](Cc2ccc(O)cc2)NC(=O)[C@H](CO)NC1=O [Ex. 60] (Ac-CW[Dab][Tle]AS[dP]P[Nle]SY[Dab][Orn]C[dDab][Dab][Dab][dF]L[Dab][Dab]T; disulfide 1-14; lactam 16-C)	0.25 µg/mL	0.0625 µg/mL	1 µg/mL	0.25 µg/mL	1 µg/mL	1 µg/mL	0.5 µg/mL	<1%	–
CCCC[C@@H]1NC(=O)[C@@H]2CCCN2C(=O)[C@H]2CCCN2C(=O)[C@H](CO)NC(=O)[C@H](C)NC(=O)[C@H](C(C)(C)C)NC(=O)[C@H](CCN)NC(=O)[C@H](Cc2c[nH]c3ccccc23)NC(=O)[C@@H](NC(C)=O)CSSC[C@@H](C(=O)N[C@@H](CCN)C(=O)N[C@@H](CCN)C(=O)N[C@H]2CCNC(=O)[C@H]([C@@H](C)O)NC(=O)[C@H](CCN)NC(=O)[C@H](CCN)NC(=O)[C@H](CC(C)C)NC(=O)[C@@H](Cc3ccccc3)NC(=O)[C@H](CCN)NC2=O)NC(=O)[C@H](CCCN)NC(=O)[C@H](CCN)NC(=O)[C@H](Cc2ccc(O)cc2)NC(=O)[C@H](CO)NC1=O [Ex. 61] (Ac-CW[Dab][Tle]AS[dP]P[Nle]SY[Dab][Orn]C[Dab][Dab][Dab][Dab][dF]L[Dab][Dab]T; disulfide 1-14; lactam 17-C)	1 µg/mL	0.5 µg/mL	8 µg/mL	2 µg/mL	1 µg/mL	1 µg/mL	0.25 µg/mL	<1%	–
CCCC[C@@H]1NC(=O)[C@@H]2CCCN2C(=O)[C@H]2CCCN2C(=O)[C@H](CO)NC(=O)[C@H](C)NC(=O)[C@H](C(C)(C)C)NC(=O)[C@H](CCN)NC(=O)[C@H](Cc2c[nH]c3ccccc23)NC(=O)[C@@H](NC(C)=O)CSSC[C@@H](C(=O)N[C@@H](CCN)C(=O)N[C@H](C(=O)N[C@@H](CCN)C(=O)N[C@H]2CCNC(=O)[C@H]([C@@H](C)O)NC(=O)[C@H](CCN)NC(=O)[C@H](CCN)NC(=O)[C@H](CC(C)C)NC(=O)[C@@H](Cc3ccccc3)NC(=O)[C@H](CCN)NC2=O)[C@@H](C)O)NC(=O)[C@H](CCCN)NC(=O)[C@H](CCN)NC(=O)[C@H](Cc2ccc(O)cc2)NC(=O)[C@H](CO)NC1=O [Ex. 62] (Ac-CW[Dab][Tle]AS[dP]P[Nle]SY[Dab][Orn]C[Dab]T[Dab][Dab][Dab][dF]L[Dab][Dab]T; disulfide 1-14; lactam 18-C)	0.5 µg/mL	0.25 µg/mL	8 µg/mL	1 µg/mL	0.5 µg/mL	0.5 µg/mL	0.5 µg/mL	1%	–
CCCC[C@@H]1NC(=O)[C@@H]2CCCN2C(=O)[C@H]2CCCN2C(=O)[C@H](CO)NC(=O)[C@H](C)NC(=O)[C@H](C(C)(C)C)NC(=O)[C@H](CCN)NC(=O)[C@H](Cc2c[nH]c3ccccc23)NC(=O)[C@H](NC(C)=O)CSSC[C@@H](C(=O)N[C@@H](CCN)C(=O)N[C@H](C(=O)N[C@@H](CCN)C(=O)N[C@H]2CCNC(=O)[C@H]([C@@H](C)O)NC(=O)[C@H](CCN)NC(=O)[C@H](CCN)NC(=O)[C@H](CC(C)C)NC(=O)[C@@H](Cc3ccccc3)NC(=O)[C@H](CCN)NC2=O)[C@@H](C)O)NC(=O)[C@H](CCCN)NC(=O)[C@H](CCN)NC(=O)[C@H](Cc2ccc(O)cc2)NC(=O)[C@H](CO)NC1=O [Ex. 63] (Ac-[dC]W[Dab][Tle]AS[dP]P[Nle]SY[Dab][Orn]C[Dab]T[Dab][Dab][Dab][dF]L[Dab][Dab]T; disulfide 1-14; lactam 18-C)	2 µg/mL	0.5 µg/mL	8 µg/mL	3 µg/mL	2 µg/mL	2 µg/mL	0.5 µg/mL	<1%	–
CCCC[C@@H]1NC(=O)[C@@H]2CCCN2C(=O)[C@H]2CCCN2C(=O)[C@H](CO)NC(=O)[C@H](C)NC(=O)[C@H](C(C)(C)C)NC(=O)[C@H](CCN)NC(=O)[C@H](Cc2c[nH]c3ccccc23)NC(=O)[C@H](CCN)NC(=O)[C@@H](CCN)NC(=O)[C@H](CCC(=O)N[C@H](CCN)C(=O)N[C@H]2CCNC(=O)[C@H]([C@@H](C)O)NC(=O)[C@H](CCN)NC(=O)[C@H](CCN)NC(=O)[C@H](CC(C)C)NC(=O)[C@@H](Cc3ccccc3)NC(=O)[C@H](CCN)NC2=O)NC(=O)[C@H](CCN)NC(=O)[C@H](Cc2ccc(O)cc2)NC(=O)[C@H](CO)NC1=O [Ex. 65] (I: cyclo([Nle]SY[Dab]E[dDab][Dab]W[Dab][Tle]AS[dP]P) / II: [dDab][Dab][Dab][dF]L[Dab][Dab]T; amide I:5-II:N; lactam II:2-II:C)	1 µg/mL	1 µg/mL	2 µg/mL	1 µg/mL	2 µg/mL	4 µg/mL	1 µg/mL	–	<1%

— patent US10829520B2, “Beta-hairpin peptidomimetics” (POLYPHOR AG, priority 2015, dated 2020)
